In brackets after ≈: the same amount, converted by molar mass.
Assays:
Type in all cases: cell-based
E. coli JT39 [1] = assay: MIC by standard microtitre technique, ampicillin with and without inhibitor; details: dilution in trytone soy broth
Procedure: (§1) By a standard microtitre technique the MIC values for ampicillin alone, ampicillin and 9-(4-benzyl piperazinyldeoxyclavulanic acid and 9-(4-benzyl)piperazin -1-yldeoxyclavulanic acid alone were determined.

Kleb. aerogenes E70 = assay: as above; details: dilution in trytone soy broth
Procedure: as §1

Staph. aureus Russell = assay: as above; details: dilution in trytone soy broth
Procedure: as §1

E. coli JT39 [2] = assay: MIC by standard microtitre technique, amoxycillin with and without compound
K. aerogenes E70 = assay: as above
S. aureus Russell = assay: as above
[3] = Ampicillin + inhibitor at 1µg/ml
[4] = Ampicillin + inhibitor at 5µg/ml
[5] = Amoxycillin + compound, concentration of inhibitor 1.0 µg/ml
[6] = Amoxycillin + compound, concentration of inhibitor 5.0 µg/ml

| SMILES | MIC (E. coli JT39 [2]; [5]) [µg/mL] | MIC (E. coli JT39 [2]; [6]) [µg/mL] | MIC (K. aerogenes E70; [5]) [µg/mL] | MIC (K. aerogenes E70; [6]) [µg/mL] | MIC (S. aureus Russell; [5]) [µg/mL] | MIC (S. aureus Russell; [6]) [µg/mL] | other results |
| --- | --- | --- | --- | --- | --- | --- | --- |
| O=C(O)[C@H]1/C(=C/CN2CCN(Cc3ccccc3)CC2)O[C@@H]2CC(=O)N21 [Example 2, 9-(4-Benzylpiperazin-1-yl)deoxyclavulanic acid] |  |  |  |  |  |  | MIC (E. coli JT39 [1]; [3]): 62 µg/mL; MIC (E. coli JT39 [1]; [4]): 16 µg/mL; MIC (E. coli JT39 [1]; Inhibitor alone): >500 µg/mL; MIC (Kleb. aerogenes E70; [3]): 25 µg/mL; MIC (Kleb. aerogenes E70; [4]): 3.1 µg/mL; MIC (Kleb. aerogenes E70; Inhibitor alone): 500 µg/mL (≈ 1400 µM); MIC (Staph. aureus Russell; [3]): 0.3 µg/mL; MIC (Staph. aureus Russell; [4]): <0.01 µg/mL; MIC (Staph. aureus Russell; Inhibitor alone): 16 µg/mL (≈ 44.8 µM) |
| CC1(C)S[C@@H]2[C@H](NC(=O)[C@H](N)c3ccc(O)cc3)C(=O)N2[C@H]1C(=O)O [Amoxycillin, reference compound] |  |  |  |  |  |  | MIC (E. coli JT39 [2]; Amoxycillin alone): 500 µg/mL (≈ 1370 µM); MIC (K. aerogenes E70; Amoxycillin alone): 500 µg/mL (≈ 1370 µM); MIC (S. aureus Russell; Amoxycillin alone): 500 µg/mL (≈ 1370 µM) |
| O=C(OCc1ccc([N+](=O)[O-])cc1)[C@H]1/C(=C/CN2CCSCC2)O[C@@H]2CC(=O)N21 [Example 8, p-Nitrobenzyl 9-(thiomorpholino)deoxyclavulanate] | 8.0 | 2.0 | 3.1 | 1.6 | 0.62 |  |  |
| O=C(O)[C@H]1/C(=C/CN2CCN(c3ccccc3)CC2)O[C@@H]2CC(=O)N21 [Example 15, 9-(4-Phenylpiperazin-l-yl)deoxyclavulanic acid] | 31.2 | 4.0 | 12.5 | 6.2 | 0.16 |  |  |
| CC1(C)S[C@@H]2[C@H](NC(=O)[C@H](N)c3ccccc3)C(=O)N2[C@H]1C(=O)O [Ampicillin, ampicillin, reference compound] |  |  |  |  |  |  | MIC (E. coli JT39 [1]; Ampicillin alone): >2000 µg/mL; MIC (Kleb. aerogenes E70; Ampicillin alone): 1000 µg/mL (≈ 2860 µM); MIC (Staph. aureus Russell; Ampicillin alone): 1000 µg/mL (≈ 2860 µM) |
| CCOC(=O)N1CCN(C/C=C2\O[C@@H]3CC(=O)N3[C@H]2C(=O)O)CC1 [Example 4, 9-(4-Ethoxycarbonylpiperazin-1-yl)deoxyclavulanic acid] | 31.2 | 4.0 | 6.2 | 1.5 | 1.25 | 0.3 |  |
| O=C(O)[C@H]1/C(=C/CN2CCOCC2)O[C@@H]2CC(=O)N21 [Example 11, 9-(Morpholino)deoxyclavulanic acid] | 16.0 | 4.0 | 3.1 | 1.5 | 0.6 | 0.15 |  |
| CC1CN(C/C=C2\O[C@@H]3CC(=O)N3[C@H]2C(=O)O)CC(C)O1 (stereo partly shown) [Example 13, 9-(2,6-DimethyLmorpholino)deoxyclavulanic acid] | 31.2 | 4.0 | 6.2 | 1.5 | 1.25 | 0.3 |  |

— patent EP0028083A1, “Derivatives of clavulanic acid, a process for their preparation and pharmaceutical compositions containing them” (BEECHAM GROUP PLC, priority 1979, dated 1981)
